Where two headings read alike, the source gives them in different places.
Experiments:
[1] = target: pure guinea pig sigma-1 receptor (Cavia porcellus, UniProt Q60492); test: Competitive displacement of [3H]-; format: binding
[2] = target: T1, sigma-2 receptor (sigma-2 sites) (Rattus norvegicus, UniProt Q5U3Y7); test: Competitive displacement of [3H]-DTG binding, rat liver membranes; conditions: for KI sigma-2 sites: rat liver membranes in the presence of 100 nM (+)-pentazocine, [3H]-DTG; for sigma-2/sigma-1: ratio from the KI value of sigma-1 and sigma-2 sites (membranes)
T1 sequence (Q5U3Y7 1-176): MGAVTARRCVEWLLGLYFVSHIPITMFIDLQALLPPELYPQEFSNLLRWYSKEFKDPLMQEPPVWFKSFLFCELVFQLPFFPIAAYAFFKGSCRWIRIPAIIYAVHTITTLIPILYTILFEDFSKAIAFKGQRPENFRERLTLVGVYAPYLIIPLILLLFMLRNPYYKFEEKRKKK

Kv1.4 potassium channel = Kv1.4 potassium channel (Rattus norvegicus, UniProt P15385+Q9R0C9); test: Whole cell patch clamp, HEK-293 cells co-expressing Kv1.4 and sigma-1 receptor; format: cell-based; conditions: for average inhibition of the Kv1.4 potassium channel: concentrations up to 300 μM, HEK-293 with Kv1.4 and sigma-1 receptor
Sequence of Kv1.4 potassium channel (P15385 whole entry): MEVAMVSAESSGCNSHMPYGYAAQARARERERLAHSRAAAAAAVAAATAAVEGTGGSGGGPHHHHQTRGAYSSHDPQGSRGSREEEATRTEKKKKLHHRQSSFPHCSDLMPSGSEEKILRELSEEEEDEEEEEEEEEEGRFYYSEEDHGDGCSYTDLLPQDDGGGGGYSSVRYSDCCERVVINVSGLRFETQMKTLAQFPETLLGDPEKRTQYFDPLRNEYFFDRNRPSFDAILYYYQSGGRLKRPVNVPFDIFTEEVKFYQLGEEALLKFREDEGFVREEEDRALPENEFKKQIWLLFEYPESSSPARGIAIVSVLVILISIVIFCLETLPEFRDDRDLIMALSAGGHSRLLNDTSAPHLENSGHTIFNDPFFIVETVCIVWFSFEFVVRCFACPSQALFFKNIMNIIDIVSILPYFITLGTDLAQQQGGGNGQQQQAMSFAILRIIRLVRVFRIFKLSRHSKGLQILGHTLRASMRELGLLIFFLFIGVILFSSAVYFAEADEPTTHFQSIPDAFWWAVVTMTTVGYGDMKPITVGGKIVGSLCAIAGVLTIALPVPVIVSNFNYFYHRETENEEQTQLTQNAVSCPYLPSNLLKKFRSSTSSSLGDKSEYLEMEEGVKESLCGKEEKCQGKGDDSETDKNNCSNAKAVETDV
Sequence of Kv1.4 potassium channel (Q9R0C9 whole entry): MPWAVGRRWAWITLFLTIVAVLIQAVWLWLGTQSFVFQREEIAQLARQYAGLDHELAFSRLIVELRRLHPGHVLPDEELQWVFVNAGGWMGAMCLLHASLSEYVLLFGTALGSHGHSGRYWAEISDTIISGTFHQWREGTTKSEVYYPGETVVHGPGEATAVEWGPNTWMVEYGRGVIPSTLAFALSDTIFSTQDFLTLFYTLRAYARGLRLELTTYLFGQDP

Sig-1R, sigma-1 receptor = Sig-1R, sigma-1 receptor (Rattus norvegicus, UniProt Q9R0C9); test: NIMH PDSP secondary binding assay
Sequence of Sig-1R, sigma-1 receptor (Q9R0C9 whole entry): as above

Sig-2R, sigma-2 receptor = target: T2, Sig-2R, sigma-2 receptor (Rattus norvegicus, UniProt Q5U3Y7); test: NIMH PDSP secondary binding assay
T2 sequence (Q5U3Y7 1-176): T1 sequence (Q5U3Y7 1-176)

[3] = target: T3, 5HT1A (serotonin receptor subtype 1A) (Homo sapiens, UniProt P08908); test: NIMH PDSP secondary binding assay; conditions: KI 5HT1A
T3 sequence (P08908 1-422): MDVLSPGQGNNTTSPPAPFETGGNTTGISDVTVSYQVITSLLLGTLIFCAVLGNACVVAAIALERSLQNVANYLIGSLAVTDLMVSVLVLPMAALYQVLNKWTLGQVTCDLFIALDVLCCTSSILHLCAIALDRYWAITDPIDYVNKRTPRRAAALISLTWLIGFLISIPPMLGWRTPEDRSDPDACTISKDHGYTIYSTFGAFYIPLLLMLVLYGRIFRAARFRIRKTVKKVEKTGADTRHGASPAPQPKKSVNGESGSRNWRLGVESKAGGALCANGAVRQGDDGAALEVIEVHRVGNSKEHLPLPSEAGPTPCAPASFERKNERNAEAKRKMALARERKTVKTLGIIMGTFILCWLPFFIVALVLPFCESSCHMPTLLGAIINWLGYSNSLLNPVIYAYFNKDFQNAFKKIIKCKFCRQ

[4] = target: 5HT1B (serotonin receptor subtype 1B) (Homo sapiens, UniProt P28222); test: NIMH PDSP secondary binding assay
[5] = target: 5HT2B (serotonin receptor subtype 2B) (Homo sapiens, UniProt P41595); test: NIMH PDSP secondary binding assay
[6] = target: 5HT7 (serotonin receptor subtype 7) (Homo sapiens, UniProt P34969); test: NIMH PDSP secondary binding assay
Sequence of 5HT7 (serotonin receptor subtype 7) (P34969 whole entry, species assumed): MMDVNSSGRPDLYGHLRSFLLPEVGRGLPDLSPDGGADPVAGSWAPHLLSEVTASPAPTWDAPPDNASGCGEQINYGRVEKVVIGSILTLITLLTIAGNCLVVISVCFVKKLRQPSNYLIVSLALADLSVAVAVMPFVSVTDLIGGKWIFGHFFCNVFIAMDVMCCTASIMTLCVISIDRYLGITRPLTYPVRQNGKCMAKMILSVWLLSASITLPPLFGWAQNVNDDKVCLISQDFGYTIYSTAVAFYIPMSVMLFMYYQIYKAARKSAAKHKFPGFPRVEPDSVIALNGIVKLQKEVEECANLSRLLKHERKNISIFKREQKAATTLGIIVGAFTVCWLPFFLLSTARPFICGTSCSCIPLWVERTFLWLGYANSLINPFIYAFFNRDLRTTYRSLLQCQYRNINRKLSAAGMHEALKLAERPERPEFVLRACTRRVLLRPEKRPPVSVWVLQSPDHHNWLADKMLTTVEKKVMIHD

[7] = target: T4, α-1A (α-adrenergic receptor subtype 1A) (Homo sapiens, UniProt P35348); test: NIMH PDSP secondary binding assay
T4 sequence (P35348 1-466): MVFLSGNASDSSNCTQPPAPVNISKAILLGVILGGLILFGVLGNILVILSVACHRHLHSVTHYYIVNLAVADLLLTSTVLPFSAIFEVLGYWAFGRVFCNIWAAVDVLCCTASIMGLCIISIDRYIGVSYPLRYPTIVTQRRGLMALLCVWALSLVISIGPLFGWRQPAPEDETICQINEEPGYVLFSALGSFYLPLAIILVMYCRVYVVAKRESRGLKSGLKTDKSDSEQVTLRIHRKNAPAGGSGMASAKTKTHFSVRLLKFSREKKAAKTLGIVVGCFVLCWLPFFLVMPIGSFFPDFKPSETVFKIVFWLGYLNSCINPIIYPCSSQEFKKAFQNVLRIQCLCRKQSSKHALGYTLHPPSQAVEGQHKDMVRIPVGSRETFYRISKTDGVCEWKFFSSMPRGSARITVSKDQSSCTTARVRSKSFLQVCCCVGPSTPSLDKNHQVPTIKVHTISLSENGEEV

[8] = target: β-2 (β-adrenergic receptor subtype 2) (Homo sapiens, UniProt P07550); test: NIMH PDSP secondary binding assay
[9] = target: β-3 (β-adrenergic receptor subtype 3) (Homo sapiens, UniProt P13945); test: NIMH PDSP secondary binding assay
[10] = target: D1 (dopamine receptor type 1) (Homo sapiens, UniProt P21728); test: NIMH PDSP secondary binding assay
Sequence of D1 (dopamine receptor type 1) (P21728 whole entry): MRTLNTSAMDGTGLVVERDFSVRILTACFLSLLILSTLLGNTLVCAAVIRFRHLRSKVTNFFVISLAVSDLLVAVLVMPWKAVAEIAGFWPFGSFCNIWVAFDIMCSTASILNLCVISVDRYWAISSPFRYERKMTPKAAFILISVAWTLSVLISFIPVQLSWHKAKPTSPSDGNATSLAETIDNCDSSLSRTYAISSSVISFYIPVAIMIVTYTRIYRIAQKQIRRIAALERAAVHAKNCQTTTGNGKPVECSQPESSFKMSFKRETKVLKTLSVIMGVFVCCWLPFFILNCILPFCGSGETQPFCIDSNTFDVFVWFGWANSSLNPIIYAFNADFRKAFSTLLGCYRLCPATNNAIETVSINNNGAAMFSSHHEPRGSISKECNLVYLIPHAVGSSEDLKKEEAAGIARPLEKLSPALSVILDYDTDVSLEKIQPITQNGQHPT

[11] = target: H2 (histamine receptor type 2) (Homo sapiens, UniProt P25021); test: NIMH PDSP secondary binding assay
[12] = target: H3 (histamine receptor type 3) (Homo sapiens, UniProt Q9Y5N1); test: NIMH PDSP secondary binding assay
Sequence of H3 (histamine receptor type 3) (Q9Y5N1 whole entry): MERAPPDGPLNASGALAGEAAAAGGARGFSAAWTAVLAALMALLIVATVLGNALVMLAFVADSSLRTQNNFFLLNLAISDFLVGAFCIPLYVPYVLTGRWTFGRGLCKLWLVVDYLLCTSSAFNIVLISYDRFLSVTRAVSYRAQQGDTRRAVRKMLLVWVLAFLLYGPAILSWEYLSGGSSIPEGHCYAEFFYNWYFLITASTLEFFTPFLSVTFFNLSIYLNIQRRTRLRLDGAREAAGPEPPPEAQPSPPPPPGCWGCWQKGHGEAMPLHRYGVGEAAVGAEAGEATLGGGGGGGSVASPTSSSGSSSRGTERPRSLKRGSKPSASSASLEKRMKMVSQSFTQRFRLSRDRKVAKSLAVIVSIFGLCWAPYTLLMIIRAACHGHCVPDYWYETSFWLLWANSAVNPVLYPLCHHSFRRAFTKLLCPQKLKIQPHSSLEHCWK

[13] = target: M3 (muscarinic acetylcholine receptor type 3) (Homo sapiens, UniProt P20309); test: NIMH PDSP secondary binding assay
[14] = target: M4 (muscarinic acetylcholine receptor type 4) (Homo sapiens, UniProt P08173); test: NIMH PDSP secondary binding assay
Sequence of M4 (muscarinic acetylcholine receptor type 4) (P08173 whole entry): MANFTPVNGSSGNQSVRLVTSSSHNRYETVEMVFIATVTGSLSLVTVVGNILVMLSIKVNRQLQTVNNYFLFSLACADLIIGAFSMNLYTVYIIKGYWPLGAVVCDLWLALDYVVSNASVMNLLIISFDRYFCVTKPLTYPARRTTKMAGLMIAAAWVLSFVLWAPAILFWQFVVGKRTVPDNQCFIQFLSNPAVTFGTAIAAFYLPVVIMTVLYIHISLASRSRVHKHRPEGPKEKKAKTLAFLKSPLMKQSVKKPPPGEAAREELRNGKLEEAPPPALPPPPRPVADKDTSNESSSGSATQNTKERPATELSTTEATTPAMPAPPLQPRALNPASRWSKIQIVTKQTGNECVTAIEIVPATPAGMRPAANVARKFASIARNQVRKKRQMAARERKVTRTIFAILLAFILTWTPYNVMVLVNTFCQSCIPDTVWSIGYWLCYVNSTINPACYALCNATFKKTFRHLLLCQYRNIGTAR

[15] = target: M5 (muscarinic acetylcholine receptor type 5) (Homo sapiens, UniProt P08912); test: NIMH PDSP secondary binding assay
Sequence of M5 (muscarinic acetylcholine receptor type 5) (P08912 whole entry): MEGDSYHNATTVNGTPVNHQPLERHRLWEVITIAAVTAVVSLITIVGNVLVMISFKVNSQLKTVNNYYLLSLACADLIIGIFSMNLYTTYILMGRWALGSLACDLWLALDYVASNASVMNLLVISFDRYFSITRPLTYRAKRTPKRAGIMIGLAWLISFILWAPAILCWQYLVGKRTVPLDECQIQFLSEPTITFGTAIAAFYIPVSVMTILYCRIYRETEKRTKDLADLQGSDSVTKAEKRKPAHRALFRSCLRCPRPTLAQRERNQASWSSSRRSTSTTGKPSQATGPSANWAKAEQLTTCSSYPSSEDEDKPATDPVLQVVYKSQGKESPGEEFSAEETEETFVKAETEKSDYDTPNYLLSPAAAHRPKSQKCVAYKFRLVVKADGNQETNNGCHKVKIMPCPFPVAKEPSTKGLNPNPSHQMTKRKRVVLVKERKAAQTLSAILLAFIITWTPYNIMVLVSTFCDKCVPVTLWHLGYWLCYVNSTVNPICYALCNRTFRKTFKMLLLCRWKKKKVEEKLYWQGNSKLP

[16] = target: NET (norepinephrine transporter) (Homo sapiens, UniProt P23975); test: NIMH PDSP secondary binding assay
Sequence of NET (norepinephrine transporter) (P23975 whole entry, species assumed): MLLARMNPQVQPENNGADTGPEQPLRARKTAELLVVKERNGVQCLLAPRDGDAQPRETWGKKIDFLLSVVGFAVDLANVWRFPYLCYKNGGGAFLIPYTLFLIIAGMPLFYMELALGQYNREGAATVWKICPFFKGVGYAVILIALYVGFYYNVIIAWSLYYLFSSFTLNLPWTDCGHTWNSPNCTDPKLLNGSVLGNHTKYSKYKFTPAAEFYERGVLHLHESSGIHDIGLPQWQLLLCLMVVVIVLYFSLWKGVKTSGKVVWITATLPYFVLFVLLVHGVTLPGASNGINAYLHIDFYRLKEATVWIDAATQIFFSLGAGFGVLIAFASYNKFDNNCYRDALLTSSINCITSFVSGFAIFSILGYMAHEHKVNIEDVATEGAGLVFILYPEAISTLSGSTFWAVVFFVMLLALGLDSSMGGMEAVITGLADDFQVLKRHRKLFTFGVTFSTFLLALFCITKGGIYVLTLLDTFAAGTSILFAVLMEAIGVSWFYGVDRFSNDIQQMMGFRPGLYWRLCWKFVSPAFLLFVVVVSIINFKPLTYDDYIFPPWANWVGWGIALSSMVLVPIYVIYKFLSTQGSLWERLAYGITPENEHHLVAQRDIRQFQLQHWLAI

[17] = target: SERT (serotonin transporter) (Homo sapiens, UniProt P31645); test: NIMH PDSP secondary binding assay
Sequence of SERT (serotonin transporter) (P31645 whole entry, species assumed): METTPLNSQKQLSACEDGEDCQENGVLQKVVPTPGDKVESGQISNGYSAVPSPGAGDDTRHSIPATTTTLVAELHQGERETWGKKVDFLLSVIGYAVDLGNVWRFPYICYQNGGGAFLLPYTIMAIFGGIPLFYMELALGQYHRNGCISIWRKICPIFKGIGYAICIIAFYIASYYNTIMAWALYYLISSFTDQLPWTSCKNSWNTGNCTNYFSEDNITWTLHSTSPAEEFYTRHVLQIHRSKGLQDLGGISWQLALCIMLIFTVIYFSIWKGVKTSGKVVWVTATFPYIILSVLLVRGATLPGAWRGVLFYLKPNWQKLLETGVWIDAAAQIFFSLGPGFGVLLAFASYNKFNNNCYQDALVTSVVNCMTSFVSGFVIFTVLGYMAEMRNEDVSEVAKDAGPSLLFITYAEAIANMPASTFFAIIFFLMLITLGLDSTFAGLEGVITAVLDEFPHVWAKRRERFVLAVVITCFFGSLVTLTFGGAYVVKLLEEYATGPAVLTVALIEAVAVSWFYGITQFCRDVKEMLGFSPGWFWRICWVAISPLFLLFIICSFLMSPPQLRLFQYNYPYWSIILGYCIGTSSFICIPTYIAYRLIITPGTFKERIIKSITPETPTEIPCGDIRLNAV

MDA-MB-231 = test: Multiplex cytotoxicity assay; format: cell-based; conditions: Homo sapiens, MDA-MB-231, read-out: IC50 MDA-MB-231
MCF-7 = test: Multiplex cytotoxicity assay; format: cell-based; conditions: Homo sapiens, MCF7, read-out: IC50 MCF-7
MCF-10A = test: Multiplex cytotoxicity assay; format: cell-based; conditions: Homo sapiens, read-out: IC50 MCF-10A
NCI-H460 = test: Multiplex cytotoxicity assay; format: cell-based; conditions: Homo sapiens, NCI-H460, read-out: IC50 NCI-H460
A549 = test: Multiplex cytotoxicity assay; format: cell-based; conditions: Homo sapiens, A549, read-out: IC50 A549
H1299 = test: Multiplex cytotoxicity assay; format: cell-based; conditions: Homo sapiens, NCI-H1299, read-out: IC50 H1299
HCT-15 = test: Multiplex cytotoxicity assay; format: cell-based; conditions: Homo sapiens, HCT-15, read-out: IC50 HCT-15
HT-29 = test: Multiplex cytotoxicity assay; format: cell-based; conditions: Homo sapiens, HT-29, read-out: IC50 HT-29
SK-OV-3 = test: Multiplex cytotoxicity assay; format: cell-based; conditions: Homo sapiens, SK-OV-3, read-out: IC50 SK-OV-3
Du145 = test: Multiplex cytotoxicity assay; format: cell-based; conditions: Homo sapiens, DU-145, read-out: IC50 Du145
SF-268 = test: Multiplex cytotoxicity assay; format: cell-based; conditions: Homo sapiens, SF-268, read-out: IC50 SF-268
caspases 3/7, 8, and 9 = test: Caspase activation potential; format: cell-based; conditions: data not shown
sigma-1 receptor = sigma-1 receptor (Cavia porcellus, UniProt Q60492); test: Saturation binding of [3H]-; set-up: species or system guinea pig; conditions: GPLM; increasing concentrations of 2b
Sequence of sigma-1 receptor (Q60492 whole entry): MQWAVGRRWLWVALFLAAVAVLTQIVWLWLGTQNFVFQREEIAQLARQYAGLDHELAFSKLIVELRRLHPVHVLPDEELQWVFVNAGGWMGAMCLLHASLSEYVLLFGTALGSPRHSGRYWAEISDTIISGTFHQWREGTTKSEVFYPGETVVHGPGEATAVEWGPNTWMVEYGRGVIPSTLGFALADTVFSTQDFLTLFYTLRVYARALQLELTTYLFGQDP

[18] = system: tumors grown from the mouse mammary adenocarcinoma cell line 66; conditions: nude mice with tumors from mouse mammary adenocarcinoma cell line 66; cited from earlier work
caspases 3/7 [19] = test: Caspase activation by rimcazole in cancer cell lines; format: cell-based; conditions: any cancer cell lines tested, including MCF-7
caspases 3/7 [20] = conditions: MCF-7 and MDA MB 468 mammary carcinoma; ref Spruce et al. 2004; cited from earlier work
[21] = read-out: KI pure sigma-1 receptor, Table 1, [3H]-(+)-pentazocine displacement

Sequence of pure guinea pig sigma-1 receptor (Q60492 whole entry): as above

CCCCNCCCc1ccccc1 [1a, N-(3-Phenylpropyl)butan-1-amine]
Ki [1]: 0.2 ± 0.02 µM | KI sigma-2 sites [2]: nanomolar affinities | sigma-2/sigma-1 [2]: 2 | IC50 (Kv1.4 potassium channel): 50 µM

CCCCNCCCc1ccc([N+](=O)[O-])cc1 [1b, N-(3-(4-Nitrophenyl)propyl)butan-1-amine]
KI sigma-2 sites [2]: nanomolar affinities | sigma-2/sigma-1 [2]: 7

CCCCCCCNCCCc1ccc([N+](=O)[O-])cc1 [2b, N-(3-(4-Nitrophenyl)propyl)heptan-1-amine]
KI sigma-2 sites [2]: nanomolar affinities | sigma-2/sigma-1 [2]: 1 | Ki (Sig-1R, sigma-1 receptor): 0.02 µM | Ki (Sig-2R, sigma-2 receptor): 0.014 µM | Ki ([3]; NIMH PDSP, [3H]8-OH-DPAT/0.5 nM): 0.05 µM | Ki ([3]; text statement on secondary screen): < 0.05 µM | Ki [4]: > 10 µM | Ki [5]: 1.1 µM | Ki [6]: 0.9 µM | Ki [7]: > 10 µM | Ki [8]: > 10 µM | Ki [9]: > 10 µM | Ki [10]: > 10 µM | Ki [11]: 0.6 µM | Ki [12]: > 10 µM | Ki [13]: 1.1 µM | Ki [14]: 1.4 µM | Ki [15]: 0.3 µM | Ki [16]: 4 µM | Ki [17]: 1.1 µM | IC50 (MDA-MB-231): 30 ± 2 µM | IC50 (MCF-7): 21 ± 1 µM | IC50 (MCF-10A): 53 ± 6 µM | IC50 (NCI-H460): 38 ± 4 µM | IC50 (A549): 55 ± 5 µM | IC50 (H1299): 28 ± 1 µM | IC50 (HCT-15): > 100 µM | IC50 (HT-29): 30 ± 1 µM | IC50 (SK-OV-3): 73 ± 8 µM | IC50 (Du145): 29 ± 1 µM | IC50 (SF-268): 40 ± 3 µM | activation of caspases 3/7, 8, and 9 (caspases 3/7, 8, and 9): did not activate | Bmax of [3H]-(+)-pentazocine in the presence of 2b (sigma-1 receptor): unchanged

CCCCCCCCCCCCCCCCCCNCCCc1ccccc1 [4a, N-(3-Phenylpropyl)octadecan-1-amine]
KI sigma-2 sites [2]: micromolar affinities | sigma-2/sigma-1 [2]: 0.6

CCCCCCCCCCCCCCCCCCNCCCc1ccc([N+](=O)[O-])cc1 [4b, N-(3-(4-Nitrophenyl)propyl)octadecan-1-amine]
Ki [1]: 0.042 ± 0.007 µM | KI sigma-2 sites [2]: micromolar affinities | sigma-2/sigma-1 [2]: 0.3

CCCCCN [Amylamine]
Ki [1, 21]: 167 ± 35 µM

CCCCN [Butylamine, reference compound]
Ki [1, 21]: 477 ± 67 µM | average inhibition of the Kv1.4 potassium channel (Kv1.4 potassium channel): 21%

CCCCCCCN [Heptylamine, reference compound]
average inhibition of the Kv1.4 potassium channel (Kv1.4 potassium channel): 15%

CCCCCCCCN [Octylamine]
Ki [1, 21]: 6 ± 3 µM

CCCCCCCCCCCCCCN [Tretradecylamine]
Ki [1, 21]: 1 ± 0.03 µM

O=C(Cc1cccc(Br)c1)NC1CCN(Cc2ccc([18F])cc2)CC1 [[^18F]FBPBPA, N-[1-(4′-[^18F]fluorobenzyl)piperidin-4-yl]-3-bromophenylacetamide]
receptor-specific uptake of the tracer in the brain [18]: ~ 60% | receptor-specific uptake of the tracer in the tumor [18]: ~ 25%

C[C@@H]1CN(CCCn2c3ccccc3c3ccccc32)C[C@H](C)N1 [rimcazole]
activation of caspases 3/7 (caspases 3/7 [19]): not found to activate | activation of caspases 3/7 (caspases 3/7 [20]): activate

— publication PMC3234165 (Biochemistry, 2011)
